Assay results from patent US20030148954A1, “Agents and methods for modulating activator protein-1-mediated cellular processes” (Wisconsin Alumni Research Foundation, priority 2001, published 2003).

Legend:
Format in all cases: cell-based, human
c-Jun = test: Western blot of c-Jun protein and c-Jun phosphorylation
Experimental: (§1) Stable Transfection—K562 cells were stably transfected by electroporation with a Bio-Rad Gene pulser electroporator. Cells (5×10^6) were washed with ice-cold PBS, resuspended in 0.5 ml of ice-cold PBS, mixed with 5 μg linearized plasmid DNA, and subjected to electroporation (960 microfarad; 220 V) in a 0.4 cm-wide electroporation cuvette (BTX). pBabe and pNIC-1 were linearized with NotI. Cells were then added to 20 ml of complete IMEM, grown for 48 h, and diluted in complete IMEM containing 1.5 μg/ml puromycin (pools of K562-Babe and K562-NIC-1 cells). Stably transfected cells were analyzed for erythroid differentiation as soon as the pools were generated by benzidine staining to reduce the probability of phenotypic changes that may result from prolonged growth.
Cells were washed once with ice-cold PBS, cell pellets were resuspended in 30 μl ice-cold PBS and were immediately boiled in 70 μl SDS sample buffer for 10 min. Proteins (10 μl) were resolved by SDS-PAGE on a 10% acrylamide gel and transferred to Immobilon P membrane (Millipore). After blocking membranes in 5% nonfat dry milk in TBST (10 mM Tris pH 8.0, 150 mM NaCl, 0.3% Tween-20), membranes were incubated with primary antibody (diluted 1:1000 in dry milk/TBST). […] Antigen-antibody complexes were detected with ECL Plus™ (Amersham Life Science) according to manufacturer's instructions.

IκBα = test: Northern blotting of IκBα transcripts in K562-Babe and K562-NIC-1 cells; conditions: 5 nM TPA 12 h, stably transfected NIC-1
Experimental: as §1
(§2) Northern Blotting—Total RNA from K562-Babe and K562-NIC-1 cells was extracted with Triazol (Life Technologies, Inc.). Ten μg of RNA per sample was electrophoresed on a 1% agarose, 6.6% formaldehyde gel and then transferred overnight to a Magnacharge nylon membrane (Osmonics). RNA was cross-linked to the membrane by UV irradiation. Membranes were prehybridized for 30 min at 60° C. in ExpressHyb hybridization solution (Clontech). […] Radioactivity was quantitated by PhosphorImager analysis with ImageQuant software (Molecular Dynamics).

IL-8 = test: Northern blotting of IL-8 transcripts in K562-Babe and K562-NIC-1 cells; conditions: 5 nM TPA 12 h, stably transfected NIC-1
Experimental: as §1, §2

Substance: NIC-1: constitutively active Notch-1 intracellular domain, amino acids 1759-2556 of human Notch-1 with carboxyl-terminal Myc tag, expressed from pBabe-NIC-1
- effect on time-dependent induction of phosphorylation of c-Jun (serine 73) and JunD (c-Jun; 5 nM TPA for 0, 5, 10, or 20 min): no effect
- effect on c-Jun protein levels (c-Jun; K562-NIC-1 versus K562-Babe): did not affect
- effect on TPA induction of IκBα transcripts (IκBα): no effect
- TPA induction of IL-8 transcript levels in K562-NIC-1 versus K562-Babe cells (IL-8): considerably lower
